In patent US12419305B2, “Antimicrobial compositions” (Firmenich SA, priority 2018, dated 2025):
Like-named read-outs stand apart in the source and are kept apart here.

What was measured:
S. aureus ATCC 6538 = test: BCT test (bacterial contact time), 60 s, log reduction / effect fraction; CI by Compusyn; assay type: cell-based, Staphylococcus aureus; conditions: Staphylococcus aureus, ATCC6538, 1 min, in 25% EtOH; for log reduction at 0.2 % strength: dose 0.200 % w/v; for log reduction at 0.2 % strength / log reduction at 0.15 % strength / log reduction at 0.175 % strength: read-out: Log reduction
How it was run: (§1)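 Ethanol solutions of ingredient blends and single ingredients, 5 replicates; bacteria ~1×10^8/mL added 1:1; contact 45 or 60 s as listed; three 1:10 then 17 1:2 dilutions; regrowth 37° C, OD600; viable log CFU → log reduction vs ethanol. CI <0.9 = synergy.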

[1] = test system: Pseudomonas aeruginosa ATCC 15442; test: as above; assay type: cell-based; conditions: Pseudomonas aeruginosa, ATCC15442, 1 min, BCT 60 s, in 25% EtOH
How it was run: as §1

[2] = test system: Salmonella enterica ATCC 10708; test: as above; assay type: cell-based; conditions: Salmonella enterica, ATCC10708, 1 min, BCT 60 s, in 25% EtOH
How it was run: as §1

C. xerosis ATCC 373 = test: BCT test (bacterial contact time), 120 s, log reduction / effect fraction; CI by Compusyn; assay type: cell-based; conditions: Corynebacterium xerosis, ATCC373, 2 min, contact 120 s, 25% EtOH; for log reduction at 0.1 % strength: dose 0.1% w/v; for log reduction at 0.2 % strength: dose 0.2% w/v; for log reduction at 0.25 % strength: dose 0.25% w/v; for log reduction at 0.3 % strength: dose 0.3% w/v
Method: C. xerosis: Suspensions of the C. xerosis ATCC 373 strain were prepared as follows: Stock cultures (stored at −80° C.) were thawed and subcultured onto Tryptic Soy Agar media with Tween 80 (TSA-TW80), and incubated at 37° C. for 48 h. The primary cultures were subcultured onto TSA-TW80 again, to prepare the secondary cultures. Single colonies of the secondary cultures were selected and used to inoculate 30 ml brain heart infusion broth with Tween 80 (BHI-TW80). The inoculated broth was incubated at 37° C. at 180 rpm for 24 h. Aliquots (1 ml) of the 24 h culture were inoculated into 30 ml of fresh BHI-TW80 broth media, and incubated at 37° C. at 180 rpm for 48 h. Aliquots (2-3 ml) of the 48 h culture were inoculated into four 50 ml of fresh BHI-TW80 broth media, and incubated at 37° C. 180 rpm for 4-6 hrs. When the OD 600 nm reached the target value of 1.6, cells were harvested by centrifugation at 5000 rpm for 10 min, and then resuspended in the same fresh BHI-TW80 at a concentration of 10^9 to 10^10 cfu/mL. This suspension was used as the bacterial suspension for the BCT test.
(§2) BCT Test: Test compositions at a range of concentrations (either combinations of more than one perfume ingredient, and comparative compositions comprising the single perfume ingredients) were prepared in ethanol. Five replicates of each test composition were added into 96-well microtiter plates (120 μl per well), with row B containing control compositions containing the ethanol solution alone. 120 μl of bacterial cell suspensions at a concentration of approximately 1×10^8 bacteria per mL (as prepared above) were added to each well of the microtiter plate. The bacterial suspensions were incubated with the test solutions for 45, 60, or 120 seconds. Following the incubation of the bacterial suspensions with the test solutions, serial dilutions of the bacterial suspensions were generated (three serial 1:10 dilutions, followed by 17 serial 1:2 dilutions), in multiwell microtiter plates.
(§3) Each plate was sealed and incubated at 37° C. under agitation (180 rpm). After incubation, the turbidity of the wells (OD600 nm) was determined using a Tecan microplate reader. Turbid wells were regarded as positive growth, due to the presence of viable cells. The total number of viable cells (log CFU) for each sample was calculated. And the log reduction for each test composition at the final concentration (dose) was calculated against the control sample of the ethanol solution.
(§4) Determination of Synergy via the Combination Index (CI): The CI was calculated using Compusyn software (ComboSyn, Inc., as created by Dr. Dorothy Chou in 2005), according to the manufacturer's instructions. The concentration of each test composition (combinations of more than one perfume ingredient, and comparative compositions comprising the single perfume ingredients used to generate the combination) and their corresponding effect fraction was entered, and the corresponding CI calculated.
(§5) When the calculated CI values were less than 0.9, the combination of perfume ingredients was regarded as having synergistic effect. When the calculated CI was between 1.0 a 0.9, the combination of perfume ingredients was regarded as having an additive effect. When the calculated CI was greater than 1.0, the combination of perfume ingredients was regarded as having an antagonistic effect.

S. haemolyticus 114126 = test: as above; assay type: cell-based; conditions: Staphylococcus haemolyticus, 114126, 2 min, contact 120 s, 25% EtOH; for log reduction at 0.2 % strength: dose 0.2% w/v
Method: S. haemolyticus: Suspensions of the S. haemolyticus 114126 strain, isolated from skin, were prepared as follows: Stock cultures (stored at −80° C.) were thawed and sub-cultured onto TSA-TW80 agar plate media, and incubated at 37° C. for 24 h to obtain single colonies. Single colonies of the primary cultures were streaked onto fresh TSA-TW80 plates and incubated at 37° C. for 24 h to prepare secondary cultures. Single colonies of secondary cultures were picked and used to inoculate 50 mL of BHI-TW80 broth. The inoculated broth was incubated at 37° C. at 180 rpm for 18 h. Aliquots (0.5 ml) of the 18 h culture were inoculated into 50 ml of fresh BHI-TW80 broth, and incubated at 37° C. at 180 rpm for approximately 3 hours. When the OD 600 nm value of the broth reached 1-2, cells were harvested by centrifugation at 5000 rpm for 10 min, and then resuspended in fresh BHI-TW80 broth at a concentration of 1-5×10^8 CFU/mL. This suspension was used as the bacterial suspension for the BCT test.
as §2, §3, §4, §5

## CCCCCCC1CCC(=O)O1 (centres unmarked) [Decal]
S. aureus ATCC 6538; dose 0.080 % w/v, 60 s
  log reduction at 0.08 % strength: 2.4
S. aureus ATCC 6538; dose 0.100 % w/v, 60 s
  log reduction at 0.1 % strength: 5
S. aureus ATCC 6538; dose 0.120 % w/v, 60 s
  log reduction at 0.12 % strength: 6.6
S. aureus ATCC 6538; dose 0.160 % w/v, 60 s
  log reduction at 0.16 % strength: 7.2
S. aureus ATCC 6538; 60 s
  log reduction at 0.2 % strength: 7
[1]; Dose 0.05 % w/v
  log reduction at 0.05 % strength: 1.3
[1]; Dose 0.055 % w/v
  log reduction at 0.055 % strength: 2.7
[1]; Dose 0.06 % w/v
  log reduction at 0.06 % strength: 2.8
[1]; Dose 0.065 % w/v
  log reduction at 0.065 % strength: 4.7
[1]; Dose 0.07 % w/v
  log reduction at 0.07 % strength: 5.2
[2]; Dose 0.04 % w/v
  log reduction at 0.04 % strength: 0.3
[2]; Dose 0.05 % w/v, read-out: Log reduction
  log reduction at 0.05 % strength: 0.7
[2]; Dose 0.06 % w/v
  log reduction at 0.06 % strength: 1.3
[2]; Dose 0.07 % w/v
  log reduction at 0.07 % strength: 2.2
[2]; Dose 0.080 % w/v
  log reduction at 0.08 % strength: 5.8
C. xerosis ATCC 373
  log reduction at 0.1 % strength: 0.1
C. xerosis ATCC 373; dose 0.15% w/v
  log reduction at 0.15 % strength: 2.2
C. xerosis ATCC 373; read-out: Log reduction
  log reduction at 0.2 % strength: 4.6
  log reduction at 0.25 % strength: 5.4
  log reduction at 0.3 % strength: 6.1
S. haemolyticus 114126; dose 0.1% w/v
  log reduction at 0.1 % strength: 0.5
S. haemolyticus 114126; dose 0.125% w/v
  log reduction at 0.125 % strength: 0.7
S. haemolyticus 114126; dose 0.15% w/v
  log reduction at 0.15 % strength: 1.2
S. haemolyticus 114126; dose 0.175% w/v, read-out: Log reduction
  log reduction at 0.175 % strength: 3.2
S. haemolyticus 114126
  log reduction at 0.2 % strength: 4.5

## C=CCc1ccc(O)c(OC)c1 [Eugenol F, 2-Methoxy-4-(prop-2-en-1-yl)phenol]
S. aureus ATCC 6538; Dose 0.1 % w/v, BCT 60 s
  log reduction at 0.1 % strength: 0.8
S. aureus ATCC 6538; Dose 0.125 % w/v, BCT 60 s
  log reduction at 0.125 % strength: 1.6
S. aureus ATCC 6538; Dose 0.15 % w/v, BCT 60 s
  log reduction at 0.15 % strength: 2.3
S. aureus ATCC 6538; Dose 0.175 % w/v, BCT 60 s
  log reduction at 0.175 % strength: 5.5
S. aureus ATCC 6538; dose 0.100 % w/v, 60 s
  log reduction at 0.1 % strength: 0.7
S. aureus ATCC 6538; dose 0.125 % w/v, 60 s
  log reduction at 0.125 % strength: 1.5
S. aureus ATCC 6538; dose 0.13 % w/v, 60 s
  log reduction at 0.13 % strength: 1.6
S. aureus ATCC 6538; dose 0.150 % w/v, 60 s
  log reduction at 0.15 % strength: 2.2
S. aureus ATCC 6538; dose 0.175 % w/v, 60 s
  log reduction at 0.175 % strength: 4.6
S. aureus ATCC 6538; 60 s
  log reduction at 0.2 % strength: 6.9
[1]; Dose 0.12 % w/v
  log reduction at 0.12 % strength: 2.4
[1]; Dose 0.14 % w/v
  log reduction at 0.14 % strength: 3.8
[1]; Dose 0.15 % w/v
  log reduction at 0.15 % strength: 7.5
[2]; Dose 0.075 % w/v
  log reduction at 0.075 % strength: 1
[2]; Dose 0.1 % w/v, read-out: Log reduction
  log reduction at 0.1 % strength: 2.4
[2]; Dose 0.10 % w/v, read-out: Log reduction
  log reduction at 0.1 % strength: 2
[2]; Dose 0.125 % w/v
  log reduction at 0.125 % strength: 4.4
[2]; Dose 0.15 % w/v
  log reduction at 0.15 % strength: 7.8
C. xerosis ATCC 373
  log reduction at 0.1 % strength: 0.1
C. xerosis ATCC 373; read-out: Log reduction
  log reduction at 0.2 % strength: 0.4
  log reduction at 0.25 % strength: 1.8
  log reduction at 0.3 % strength: 2.7
C. xerosis ATCC 373; dose 0.4% w/v, read-out: Log reduction
  log reduction at 0.4 % strength: 5.1
C. xerosis ATCC 373; dose 0.5% w/v
  log reduction at 0.5 % strength: 6.3
S. haemolyticus 114126
  log reduction at 0.2 % strength: 0.3
S. haemolyticus 114126; dose 0.25% w/v, read-out: Log reduction
  log reduction at 0.25 % strength: 2.37
S. haemolyticus 114126; dose 0.3% w/v, read-out: Log reduction
  log reduction at 0.3 % strength: 4.9
S. haemolyticus 114126; dose 0.35% w/v
  log reduction at 0.35 % strength: 7.6
